The target of assay [1] is Membrane-associated progesterone receptor component 1 (Homo sapiens, UniProt O00264).
Assay [2] deals with T1, Serine/threonine-protein kinase D2 (Homo sapiens, UniProt Q9BZL6).
T1 sequence (Q9BZL6 whole entry): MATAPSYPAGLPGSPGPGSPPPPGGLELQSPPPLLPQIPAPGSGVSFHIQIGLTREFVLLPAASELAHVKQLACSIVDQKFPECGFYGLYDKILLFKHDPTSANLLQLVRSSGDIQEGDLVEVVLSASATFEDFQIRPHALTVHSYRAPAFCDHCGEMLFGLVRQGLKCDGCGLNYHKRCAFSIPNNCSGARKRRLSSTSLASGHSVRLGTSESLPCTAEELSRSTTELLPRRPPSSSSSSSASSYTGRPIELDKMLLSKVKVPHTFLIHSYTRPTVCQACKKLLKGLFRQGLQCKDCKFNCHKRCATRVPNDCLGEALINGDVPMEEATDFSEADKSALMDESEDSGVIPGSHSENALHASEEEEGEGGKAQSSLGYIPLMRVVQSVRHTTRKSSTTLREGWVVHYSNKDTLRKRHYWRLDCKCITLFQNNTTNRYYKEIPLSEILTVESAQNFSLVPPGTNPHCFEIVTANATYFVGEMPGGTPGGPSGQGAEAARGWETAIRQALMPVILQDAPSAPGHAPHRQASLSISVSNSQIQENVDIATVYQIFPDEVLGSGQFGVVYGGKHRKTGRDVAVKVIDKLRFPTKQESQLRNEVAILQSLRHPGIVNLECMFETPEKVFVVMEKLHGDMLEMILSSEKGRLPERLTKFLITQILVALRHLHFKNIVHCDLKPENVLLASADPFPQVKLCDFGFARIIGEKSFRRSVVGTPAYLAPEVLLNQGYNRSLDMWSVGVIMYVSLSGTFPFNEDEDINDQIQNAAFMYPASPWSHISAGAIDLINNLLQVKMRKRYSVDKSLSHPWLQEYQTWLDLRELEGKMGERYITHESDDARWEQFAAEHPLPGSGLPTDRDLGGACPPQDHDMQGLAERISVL

For assay [3], the target named is GTP-binding nuclear protein Ran (Homo sapiens, UniProt P62826).
The target of assay [4] is T2, Mitogen-activated protein kinase kinase kinase 3 (Homo sapiens, UniProt Q99759).
T2 sequence (Q99759 whole entry): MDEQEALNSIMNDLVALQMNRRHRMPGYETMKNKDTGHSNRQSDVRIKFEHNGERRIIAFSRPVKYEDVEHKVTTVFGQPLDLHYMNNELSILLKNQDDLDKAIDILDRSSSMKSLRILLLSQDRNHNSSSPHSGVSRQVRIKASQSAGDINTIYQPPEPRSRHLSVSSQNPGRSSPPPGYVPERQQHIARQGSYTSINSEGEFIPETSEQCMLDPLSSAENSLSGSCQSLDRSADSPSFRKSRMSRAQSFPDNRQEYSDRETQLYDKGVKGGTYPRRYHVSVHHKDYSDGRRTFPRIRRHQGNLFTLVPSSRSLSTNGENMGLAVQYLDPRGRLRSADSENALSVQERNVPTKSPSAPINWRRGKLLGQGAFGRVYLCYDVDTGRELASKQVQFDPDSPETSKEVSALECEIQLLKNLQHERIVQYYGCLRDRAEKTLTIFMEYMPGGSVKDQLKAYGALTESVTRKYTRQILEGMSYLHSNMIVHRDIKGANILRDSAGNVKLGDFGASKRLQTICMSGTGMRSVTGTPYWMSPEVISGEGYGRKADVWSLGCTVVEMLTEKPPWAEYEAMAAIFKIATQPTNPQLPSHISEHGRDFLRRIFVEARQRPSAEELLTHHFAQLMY

Assay [5] deals with T3, Acyl-CoA dehydrogenase family member 11 (Homo sapiens, UniProt Q709F0).
T3 sequence (Q709F0 whole entry): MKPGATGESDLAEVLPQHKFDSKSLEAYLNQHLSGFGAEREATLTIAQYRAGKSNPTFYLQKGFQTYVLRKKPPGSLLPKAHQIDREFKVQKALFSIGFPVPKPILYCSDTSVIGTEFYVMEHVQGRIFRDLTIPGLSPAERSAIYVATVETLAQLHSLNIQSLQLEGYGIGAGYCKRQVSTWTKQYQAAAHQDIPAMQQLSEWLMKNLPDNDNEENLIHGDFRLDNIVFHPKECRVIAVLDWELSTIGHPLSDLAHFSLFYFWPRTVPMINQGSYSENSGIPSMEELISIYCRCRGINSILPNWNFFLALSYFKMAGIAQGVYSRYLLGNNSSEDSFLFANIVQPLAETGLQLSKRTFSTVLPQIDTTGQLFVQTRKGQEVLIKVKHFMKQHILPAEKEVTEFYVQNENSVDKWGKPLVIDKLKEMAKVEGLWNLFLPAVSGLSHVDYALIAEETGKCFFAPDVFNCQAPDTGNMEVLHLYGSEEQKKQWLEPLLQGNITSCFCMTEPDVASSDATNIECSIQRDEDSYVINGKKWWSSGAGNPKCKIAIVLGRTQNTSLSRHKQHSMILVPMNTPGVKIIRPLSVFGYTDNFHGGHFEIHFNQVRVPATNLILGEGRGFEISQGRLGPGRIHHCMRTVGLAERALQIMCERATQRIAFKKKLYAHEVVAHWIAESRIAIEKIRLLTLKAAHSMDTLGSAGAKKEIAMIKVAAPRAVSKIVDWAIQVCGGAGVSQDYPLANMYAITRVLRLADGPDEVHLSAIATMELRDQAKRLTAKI

Assay [6] has as its target ATP-dependent RNA helicase DDX3X (Homo sapiens, UniProt O00571).

Where a name gives a salt, the structure may show the parent alone. Calls of active or inactive are those of the source.
Also: in the data inactive means no Kd found up to 30 µM.

Sequence of Membrane-associated progesterone receptor component 1 (O00264 whole entry): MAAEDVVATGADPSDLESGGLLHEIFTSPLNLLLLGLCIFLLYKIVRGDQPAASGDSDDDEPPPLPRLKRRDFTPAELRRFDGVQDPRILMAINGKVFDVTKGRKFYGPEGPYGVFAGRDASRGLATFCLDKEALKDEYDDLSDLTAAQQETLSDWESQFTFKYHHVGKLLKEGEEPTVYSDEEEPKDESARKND
Sequence of ATP-dependent RNA helicase DDX3X (O00571 whole entry): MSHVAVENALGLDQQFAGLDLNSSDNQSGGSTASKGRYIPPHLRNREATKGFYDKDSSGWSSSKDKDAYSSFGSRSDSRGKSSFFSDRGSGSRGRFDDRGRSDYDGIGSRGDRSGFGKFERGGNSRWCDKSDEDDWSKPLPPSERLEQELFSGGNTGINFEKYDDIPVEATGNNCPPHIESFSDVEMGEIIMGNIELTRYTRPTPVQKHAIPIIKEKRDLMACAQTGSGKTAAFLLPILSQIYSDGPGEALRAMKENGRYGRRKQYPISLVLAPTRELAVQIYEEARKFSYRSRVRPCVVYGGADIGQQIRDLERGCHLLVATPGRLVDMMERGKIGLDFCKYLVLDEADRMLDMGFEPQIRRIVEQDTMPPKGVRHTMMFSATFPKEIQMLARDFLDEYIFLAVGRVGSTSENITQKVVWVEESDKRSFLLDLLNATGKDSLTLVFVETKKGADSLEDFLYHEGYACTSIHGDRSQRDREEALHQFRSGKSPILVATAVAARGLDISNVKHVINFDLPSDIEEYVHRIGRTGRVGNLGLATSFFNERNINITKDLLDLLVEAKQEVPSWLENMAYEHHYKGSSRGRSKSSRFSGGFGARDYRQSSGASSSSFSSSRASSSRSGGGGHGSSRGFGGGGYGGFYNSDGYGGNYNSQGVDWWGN

Regarding `Cc1csc(-c2nnc(Nc3ccc(Oc4ncccc4-c4ccnc(N)n4)cc3)c3ccccc23)c1` [AMG-900], the Kd in assay [1] was > 30 µM (inactive); in assay [2], 5.67 µM (active); in assay [3], > 30 µM (inactive); in assay [4], 2.75 µM (active); in assay [5], > 30 µM (inactive); in assay [6], > 30 µM (inactive).

Turning to `NC(=O)Nc1cc(-c2cccc(F)c2)sc1C(=O)N[C@H]1CCCNC1` [AZD-7762], the Kd in assay [1] was > 30 µM (inactive); in assay [2], 1.16 µM (active); in assay [3], > 30 µM (inactive); in assay [4] it was > 30 µM (inactive); in assay [5], > 30 µM (inactive); in assay [6] it was > 30 µM (inactive).

On to `Cc1cc(C(=O)NOCCO)c(Nc2ccc(I)cc2F)n(C)c1=O` [AZD-8330], for which the Kd in assay [1], in assay [2], in assay [3], in assay [4], in assay [5] and in assay [6] was > 30 µM (inactive) in each case.

As for `Cn1cnc2c(F)c(Nc3ccc(Br)cc3F)c(C(=O)NOCCO)cc21` [BINIMETINIB], the Kd in assay [1], in assay [2], in assay [3], in assay [4], in assay [5] and in assay [6] was > 30 µM (inactive) throughout.

Regarding `CCn1c(C(=O)N(C2CC2)C2CC2)cc2c3c(ncn3C)c(Nc3cc(C)n(C)n3)nc21` [BMS-911543], the Kd in assay [1], in assay [2], in assay [3], in assay [4], in assay [5] and in assay [6] was > 30 µM (inactive) each time.

For `COc1cc2ncnc(Oc3cccc(NC(=O)Nc4cc(C(C)(C)C(F)(F)F)on4)c3)c2cc1OC` [CEP-32496], the Kd in assay [1], in assay [2], in assay [3], in assay [4], in assay [5] and in assay [6] was > 30 µM (inactive) in each case.

Regarding `COCC(=O)NC/C=C/c1ccc2ncnc(Nc3ccc(Oc4ccc(C)nc4)c(C)c3)c2c1` [CP-724714], the Kd in assay [1], in assay [2], in assay [3], in assay [4], in assay [5] and in assay [6] was > 30 µM (inactive) each time.

Consider `C#Cc1cccc(Nc2ncnc3cc(OC)c(OCCCCCCC(=O)NO)cc23)c1` [CUDC-101], for which the Kd in assay [1], in assay [2], in assay [3], in assay [4], in assay [5] and in assay [6] was > 30 µM (inactive) throughout.

For `CCS(=O)(=O)N1CCN(c2ccc(Nc3ncc(C(N)=O)c(NC4CC4)n3)cc2)CC1` [Cerdulatinib Hydrochloride], the Kd in assay [1] was > 30 µM (inactive); in assay [2] it was 1.21 µM (active); in assay [3], > 30 µM (inactive); in assay [4] it was 1.09 µM (active); in assay [5], > 30 µM (inactive); in assay [6], > 30 µM (inactive).

For the molecule `O=C(Nc1nc2cccc(-c3ccc(CN4CCS(=O)(=O)CC4)cc3)n2n1)C1CC1` [FILGOTINIB], the Kd in assay [1], in assay [2], in assay [3], in assay [4], in assay [5] and in assay [6] was > 30 µM (inactive) in each case.

`Cc1cccc(-c2nn3c(c2-c2ccnc4ccc(C(N)=O)cc24)CCC3)n1` [GALUNISERTIB]: the Kd in assay [1], in assay [2], in assay [3], in assay [4], in assay [5] and in assay [6] was > 30 µM (inactive) throughout.

As to `CNC(=O)c1cccc2cc(Oc3ccnc4cc(OCC5(N)CC5)c(OC)cc34)ccc12` [LUCITANIB], the Kd in assay [1], in assay [2], in assay [3], in assay [4], in assay [5] and in assay [6] was > 30 µM (inactive) throughout.

As to `CNC(=O)c1nn(C)c2c1C(C)(C)Cc1cnc(Nc3ccc(N4CCN(C)CC4)cc3)nc1-2` [MILCICLIB], the Kd in assay [1] was > 30 µM (inactive); in assay [2], 0.143 µM (active); in assay [3], > 30 µM (inactive); in assay [4] it was > 30 µM (inactive); in assay [5], > 30 µM (inactive); in assay [6], > 30 µM (inactive).

Turning to `NC1(c2ccc(-c3nc4ccn5c(=O)[nH]nc5c4cc3-c3ccccc3)cc2)CCC1` [MK-2206], the Kd in assay [1], in assay [2], in assay [3], in assay [4], in assay [5] and in assay [6] was > 30 µM (inactive) in each case.

As for `Cn1cc(-c2cnc3ccc4ccc(CS(=O)(=O)NCc5ccccn5)cc4c(=O)c3c2)cn1` [MK-8033], the Kd in assay [1], in assay [2], in assay [3], in assay [4], in assay [5] and in assay [6] was > 30 µM (inactive) each time.

With `FC(F)(F)c1ccc(/C=C/c2nc(COc3ccc(CCCCn4ccnn4)cc3)co2)cc1` [MUBRITINIB], the Kd in assay [1], in assay [2], in assay [3], in assay [4], in assay [5] and in assay [6] was > 30 µM (inactive) in each case.

As for `COc1ncc(-c2ccc3nccc(-c4ccnnc4)c3c2)cc1NS(=O)(=O)c1ccc(F)cc1F` [OMIPALISIB], the Kd in assay [1], in assay [2], in assay [3], in assay [4], in assay [5] and in assay [6] was > 30 µM (inactive) each time.

For the origin of these results see ChEMBL document CHEMBL3991601, “The target landscape of clinical kinase drugs” (Science, 2017).
